Experiments:
Assay in all cases: relative viability (nuclei count vs DMSO), 5 days (fraction); higher = more cells survive
Obatoclax + Trametinib = compound: COC1=CC(c2cc3ccccc3[nH]2)=N/C1=C\c1[nH]c(C)cc1C [Obatoclax] + CC(=O)Nc1cccc(-n2c(=O)n(C3CC3)c(=O)c3c(Nc4ccc(I)cc4F)n(C)c(=O)c(C)c32)c1 [Trametinib] (partner 0.02 µM)
How it was run: (§1)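 Values are medians from duplicate plates. Each reflects relative viability, defined as the nuclei count of treated wells over that of vehicle wells. Lung cancer cell lines in 1536-well plates were pin-tool dosed one day after seeding with one drug alone or with a fixed anchor-drug dose plus five library-drug doses (not always all listed) in √10 steps, then fixed, stained and imaged at 4× after 5 days.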

[1] = compound: CC1=CC(=NN1)NC2=CC(=NC(=N2)/C=C/C3=CC=CC=C3)N4CCN(CC4)C + O=C(CCCCCCC(=O)Nc1ccccc1)NO [Vorinostat] (partner 1 µM)
How it was run: as §1

Obatoclax + Olaparib = compound: COC1=CC(c2cc3ccccc3[nH]2)=N/C1=C\c1[nH]c(C)cc1C [Obatoclax] + O=C(c1cc(Cc2n[nH]c(=O)c3ccccc23)ccc1F)N1CCN(C(=O)C2CC2)CC1 [Olaparib] (partner 8 µM)
How it was run: as §1

Obatoclax + Dasatinib = compound: COC1=CC(c2cc3ccccc3[nH]2)=N/C1=C\c1[nH]c(C)cc1C [Obatoclax] + Cc1nc(Nc2ncc(C(=O)Nc3c(C)cccc3Cl)s2)cc(N2CCN(CCO)CC2)n1 [Dasatinib] (partner 0.075 µM)
How it was run: as §1

Cell Line	relative viability (Obatoclax + Trametinib; first compound 0.01 µM)	relative viability (Obatoclax + Trametinib; first compound 0.03162 µM)	relative viability (Obatoclax + Trametinib; first compound 0.1 µM)	relative viability (Obatoclax + Trametinib; first compound 0.3162 µM)	relative viability (Obatoclax + Trametinib; first compound 1 µM)	relative viability ([1]; first compound 0.08 µM)	relative viability ([1]; first compound 0.253 µM)	relative viability ([1]; first compound 0.8 µM)	relative viability ([1]; first compound 2.53 µM)	relative viability ([1]; first compound 8 µM)	relative viability (Obatoclax + Olaparib; first compound 0.01 µM)	relative viability (Obatoclax + Olaparib; first compound 0.03162 µM)	relative viability (Obatoclax + Olaparib; first compound 0.1 µM)	relative viability (Obatoclax + Olaparib; first compound 0.3162 µM)	relative viability (Obatoclax + Olaparib; first compound 1 µM)	relative viability (Obatoclax + Dasatinib; first compound 0.01 µM)	relative viability (Obatoclax + Dasatinib; first compound 0.03162 µM)	relative viability (Obatoclax + Dasatinib; first compound 0.1 µM)	relative viability (Obatoclax + Dasatinib; first compound 0.3162 µM)	relative viability (Obatoclax + Dasatinib; first compound 1 µM)
LCLC-97TM1	0.224	0.177	0.203	0.193	0.194	0.625	0.787	0.74	0.19	0.0813	0.273	0.38	0.389	0.293	0.348	0.928	0.746	0.916	0.842	0.682
HCC-15	0.43	0.297	0.401	0.353	0.411	0.861	0.875	0.887	0.526	0.114	0.734	0.769	0.694	0.763	0.704	0.574	0.589	0.533	0.626	0.368
CAL-12T	0.337	0.431	0.47	0.246	0.14	0.686	0.573	0.639	0.428	0.126	0.759	0.764	0.724	0.679	0.232	0.419	0.414	0.426	0.0751	0.0688
NCI-H727	0.41	0.393	0.414	0.404	0.391	0.86	0.882	1.32	1.02	0.523	0.815	0.883	0.708	0.637	0.697	0.438	0.287	0.512	0.39	0.348
NCI-H2023	0.59	0.575	0.595	0.362	0.226	0.586	0.781	0.319	0.0637	0.0403	0.485	0.574	0.442	0.246	0.15	0.518	0.548	0.53	0.412	0.194
NCI-H358	0.129	0.127	0.165	0.135	0.114	0.587	0.756	0.178	0.116	0.0712	0.543	0.61	0.582	0.384	0.141	0.142	0.193	0.218	0.132	0.114
SW 1573	0.669	0.606	0.346	0.144	0.152	0.703	0.751	0.572	0.156	0.102	0.488	0.529	0.363	0.149	0.179	0.413	0.454	0.53	0.134	0.136
NCI-H1993	0.553	0.632	0.574	0.462	0.72	0.737	0.734	1.03	0.238	0.275	0.95	1.15	0.984	1.01	1.11	0.616	0.549	0.748	0.499	0.395
NCI-H661	0.585	0.553	0.593	0.493	0.473	0.784	0.854	0.562	0.348	0.311	0.741	0.729	0.729	0.676	0.516	0.875	0.846	0.427	0.762	0.4
UMC-11	0.669	0.674	0.466	0.643	0.393	0.371	0.363	0.201	0.117	0.0745	0.316	0.448	0.43	0.415	0.289	0.443	0.529	0.468	0.372	0.278
NCI-H520	0.675	0.777	0.86	0.439	0.269	0.7	0.678	0.415	0.184	0.14	0.301	0.323	0.372	0.289	0.208	0.196	0.214	0.205	0.22	0.194
ChaGo-K-1	0.951	0.846	0.869	0.894	0.878	0.799	0.8	0.613	0.343	0.186	0.4	0.439	0.391	0.382	0.41	0.637	0.582	0.502	0.584	0.644
NCI-H2085	0.671	0.598	0.582	0.405	0.377	0.826	0.95	0.822	0.322	0.366	0.726	0.784	0.747	0.816	0.708	0.256	0.205	0.508	0.256	0.226
NCI-H1651	0.847	0.811	0.846	0.845	0.836	0.349	0.529	0.464	0.497	0.145	0.182	0.164	0.189	0.224	0.179	0.563	0.376	0.372	0.293	0.187
RERF-LC-KJ	0.888	0.834	0.835	0.869	0.769	0.523	0.73	0.577	0.406	0.301	0.897	0.903	0.897	0.863	0.33	0.796	0.894	0.701	0.745	0.513
NCI-H1755	0.673	0.769	0.77	0.752	0.799	0.682	0.773	0.651	0.359	0.209	0.873	0.901	0.868	0.787	0.839	0.425	0.402	0.335	0.44	0.397
